Target: T1, human parathyroid cell Ca^2+ receptor (hPCaR) (Homo sapiens, UniProt P41180)
T1 construct: expressed in transfected cells
T1 sequence (P41180 20-1078): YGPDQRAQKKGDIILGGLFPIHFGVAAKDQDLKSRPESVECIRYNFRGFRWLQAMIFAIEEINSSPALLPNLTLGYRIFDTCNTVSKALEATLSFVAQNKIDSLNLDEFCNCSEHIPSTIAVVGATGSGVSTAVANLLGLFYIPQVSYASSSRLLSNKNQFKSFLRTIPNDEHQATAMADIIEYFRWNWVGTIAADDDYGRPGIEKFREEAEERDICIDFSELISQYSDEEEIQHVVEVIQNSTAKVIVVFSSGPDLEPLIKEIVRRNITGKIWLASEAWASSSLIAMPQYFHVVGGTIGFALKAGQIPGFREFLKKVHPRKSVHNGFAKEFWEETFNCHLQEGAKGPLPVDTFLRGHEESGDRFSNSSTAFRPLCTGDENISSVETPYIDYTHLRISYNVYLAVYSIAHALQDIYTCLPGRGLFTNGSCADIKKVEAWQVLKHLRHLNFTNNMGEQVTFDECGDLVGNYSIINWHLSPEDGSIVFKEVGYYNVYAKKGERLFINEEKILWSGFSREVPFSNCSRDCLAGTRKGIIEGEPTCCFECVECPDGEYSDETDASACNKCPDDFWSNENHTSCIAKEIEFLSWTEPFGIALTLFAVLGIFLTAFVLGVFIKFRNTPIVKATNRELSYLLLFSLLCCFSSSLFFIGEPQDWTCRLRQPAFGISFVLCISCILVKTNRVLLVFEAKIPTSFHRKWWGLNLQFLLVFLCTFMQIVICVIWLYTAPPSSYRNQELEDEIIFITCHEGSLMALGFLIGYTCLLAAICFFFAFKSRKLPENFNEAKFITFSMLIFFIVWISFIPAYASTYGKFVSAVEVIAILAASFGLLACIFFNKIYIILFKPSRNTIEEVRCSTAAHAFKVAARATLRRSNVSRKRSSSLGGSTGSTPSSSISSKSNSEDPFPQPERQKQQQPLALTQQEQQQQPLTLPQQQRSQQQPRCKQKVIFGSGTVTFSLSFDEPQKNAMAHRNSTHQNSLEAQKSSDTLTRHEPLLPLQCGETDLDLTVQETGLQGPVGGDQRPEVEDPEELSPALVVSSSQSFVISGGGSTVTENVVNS
Test: [Ca2+]i measurement with fluo-3 in HEK 293 4.0-7 cells stably transfected with hPCaR
Assay type: cell-based
Conditions: fluo-3 fluorescence (485/530 nm), effect on [Ca^2+]i
Summary of the method: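 Cytosolic [Ca2+] was read as fluo-3 fluorescence (ex 485/em 530 nm) after compound addition to washed cells. Cells were hPCaR-transfected HEK 293 clone 7, dye-loaded 30 min at 37 °C with 2 μM fluo-3 acetoxymethyl ester in HEPES-buffered saline pH 7.45 containing 1 mM CaCl2 and 0.5% BSA.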

EC50 [µM] | SMILES
≤ 10 | COc1ccc(CN[C@H](C)c2cccc3ccccc23)cc1-c1ccc2nonc2c1 [(1R)-N-((3-(2,1,3-benzoxadiazol-5-yl)-4-(methyloxy)phenyl)methyl)-1-(1-naphthalenyl)ethanamine]
≤ 10 | COc1ccc(CN[C@H](C)c2cccc3ccccc23)cc1-c1ccc2c(c1)OC(F)(F)O2 [(1R)-N-((3-(2,2-difluoro-1,3-benzodioxol-5-yl)-4-(methyloxy)phenyl)methyl)-1-(1-naphthalenyl)ethanamine]
≤ 10 | COc1ccc(CN[C@H](C)c2cccc3ccccc23)cc1-c1ccc2c(c1)CCO2 [(1R)-N-((3-(2,3-dihydro-1-benzofuran-5-yl)-4-(methyloxy)phenyl)methyl)-1-(1-naphthalenyl)ethanamine]
≤ 10 | COc1ccc(CN[C@H](C)c2cccc3ccccc23)cc1-c1ccc2oc(C)nc2c1 [(1R)-N-((3-(2-methyl-1,3-benzoxazol-5-yl)-4-(methyloxy)phenyl)methyl)-1-(1-naphthalenyl)ethanamine]
≤ 10 | COc1ccc(CN[C@H](C)c2cccc3ccccc23)cc1-c1coc(C)n1 [(1R)-N-((3-(2-methyl-1,3-oxazol-4-yl)-4-(methyloxy)phenyl)methyl)-1-(1-naphthalenyl)ethanamine]
≤ 10 | COc1ccc(CN[C@H](C)c2cccc3ccccc23)cc1-c1ccc2nn(C)cc2c1 [(1R)-N-((3-(2-methyl-2H-indazol-5-yl)-4-(methyloxy)phenyl)methyl)-1-(1-naphthalenyl)ethanamine]
≤ 10 | COc1ccc(CN[C@H](C)c2cccc3ccccc23)cc1-c1ccoc1 [(1R)-N-((3-(3-furanyl)-4-(methyloxy)phenyl)methyl)-1-(1-naphthalenyl)ethanamine]
≤ 10 | COc1cccc([C@@H](C)NCc2ccc(OC)c(-c3ccoc3)c2)c1 [(1R)-N-((3-(3-furanyl)-4-(methyloxy)phenyl)methyl)-1-(3-(methyloxy)phenyl)ethanamine]
≤ 10 | COc1ccc(CN[C@H](C)c2ccccc2)cc1-c1ccoc1 [(1R)-N-((3-(3-furanyl)-4-(methyloxy)phenyl)methyl)-1-phenylethanamine]
≤ 10 | CCOc1ccc(-c2cc(CN[C@H](C)c3cccc4ccccc34)ccc2OC)cn1 [(1R)-N-((3-(6-(ethyloxy)-3-pyridinyl)-4-(methyloxy)phenyl)methyl)-1-(1-naphthalenyl)ethanamine]
≤ 10 | COc1ccc(-c2cccc(CN[C@H](C)c3cccc4ccccc34)c2)nn1 [(1R)-N-((3-(6-(methyloxy)-3-pyridazinyl)phenyl)methyl)-1-(1-naphthalenyl)ethanamine]
≤ 10 | Cc1ccc(-c2cccc(CN[C@H](C)c3cccc4ccccc34)c2)cn1 [(1R)-N-((3-(6-methyl-3-pyridinyl)phenyl)methyl)-1-(1-naphthalenyl)ethanamine]
≤ 10 | COc1ccc(CN[C@H](C)c2cccc3ccccc23)cc1-c1ccc2nccn2c1 [(1R)-N-((3-imidazo[1,2-a]pyridin-6-yl-4-(methyloxy)phenyl)methyl)-1-(1-naphthalenyl)ethanamine]

The remaining lines, values behind:

SMILES | EC50 [µM]
COc1cccc([C@@H](C)NCc2ccc(OC)c(-c3ccc4nsnc4c3)c2)c1 [(1R)-N-((3-(2,1,3-benzothiadiazol-5-yl)-4-(methyloxy)phenyl)methyl)-1-(3-(methyloxy)phenyl)ethanamine] | ≤ 10
COc1ccc(CN[C@H](C)c2ccccc2)cc1-c1ccc2nsnc2c1 [(1R)-N-((3-(2,1,3-benzothiadiazol-5-yl)-4-(methyloxy)phenyl)methyl)-1-phenylethanamine] | ≤ 10
COc1cccc([C@@H](C)NCc2ccc(OC)c(-c3ccc4nonc4c3)c2)c1 [(1R)-N-((3-(2,1,3-benzoxadiazol-5-yl)-4-(methyloxy)phenyl)methyl)-1-(3-(methyloxy)phenyl)ethanamine] | ≤ 10
COc1ccc(CN[C@H](C)c2ccccc2)cc1-c1ccc2nonc2c1 [(1R)-N-((3-(2,1,3-benzoxadiazol-5-yl)-4-(methyloxy)phenyl)methyl)-1-phenylethanamine] | ≤ 10
COc1cccc([C@@H](C)NCc2ccc(OC)c(-c3ccc4c(c3)OC(F)(F)O4)c2)c1 [(1R)-N-((3-(2,2-difluoro-1,3-benzodioxol-5-yl)-4-(methyloxy)phenyl)methyl)-1-(3-(methyloxy)phenyl)ethanamine] | ≤ 10
COc1ccc(CN[C@H](C)c2ccccc2)cc1-c1ccc2c(c1)OC(F)(F)O2 [(1R)-N-((3-(2,2-difluoro-1,3-benzodioxol-5-yl)-4-(methyloxy)phenyl)methyl)-1-phenylethanamine] | ≤ 10
COc1cccc([C@@H](C)NCc2ccc(OC)c(-c3ccc4c(c3)CCO4)c2)c1 [(1R)-N-((3-(2,3-dihydro-1-benzofuran-5-yl)-4-(methyloxy)phenyl)methyl)-1-(3-(methyloxy)phenyl)ethanamine] | ≤ 10
COc1ccc(CN[C@H](C)c2ccccc2)cc1-c1ccc2c(c1)CCO2 [(1R)-N-((3-(2,3-dihydro-1-benzofuran-5-yl)-4-(methyloxy)phenyl)methyl)-1-phenylethanamine] | ≤ 10
CCn1nc2ccc(-c3cc(CN[C@H](C)c4ccccc4)ccc3OC)cc2n1 [(1R)-N-((3-(2-ethyl-2H-1,2,3-benzotriazol-5-yl)-4-(methyloxy)phenyl)methyl)-1-phenylethanamine] | ≤ 10
COc1ccc(CN[C@H](C)c2ccccc2)cc1-c1cccnc1F [(1R)-N-((3-(2-fluoro-3-pyridinyl)-4-(methyloxy)phenyl)methyl)-1-phenylethanamine] | ≤ 10
COc1ccc(CN[C@H](C)c2ccccc2)cc1-c1ccc2oc(C)nc2c1 [(1R)-N-((3-(2-methyl-1,3-benzoxazol-5-yl)-4-(methyloxy)phenyl)methyl)-1-phenylethanamine] | ≤ 10
COc1ccc(CN[C@H](C)c2ccccc2)cc1-c1coc(C)n1 [(1R)-N-((3-(2-methyl-1,3-oxazol-4-yl)-4-(methyloxy)phenyl)methyl)-1-phenylethanamine] | ≤ 10
COc1cccc([C@@H](C)NCc2cccc(-c3nc(C)no3)c2)c1 [(1R)-N-((3-(3-methyl-1,2,4-oxadiazol-5-yl)phenyl)methyl)-1-(3-(methyloxy)phenyl)ethanamine] | ≤ 10
CCOc1ccc(-c2cc(CN[C@H](C)c3ccccc3)ccc2OC)cn1 [(1R)-N-((3-(6-(ethyloxy)-3-pyridinyl)-4-(methyloxy)phenyl)methyl)-1-phenylethanamine] | ≤ 10
COc1ccc(-c2cccc(CN[C@H](C)c3ccccc3)c2)nn1 [(1R)-N-((3-(6-(methyloxy)-3-pyridazinyl)phenyl)methyl)-1-phenylethanamine] | ≤ 10
Cc1ccc(-c2cccc(CN[C@H](C)c3ccc4ccccc4c3)c2)cn1 [(1R)-N-((3-(6-methyl-3-pyridinyl)phenyl)methyl)-1-(2-naphthalenyl)ethanamine] | ≤ 10
Cc1ccc(-c2cccc(CN[C@H](C)c3ccccc3)c2)cn1 [(1R)-N-((3-(6-methyl-3-pyridinyl)phenyl)methyl)-1-phenylethanamine] | ≤ 10
COc1ccc(CN[C@H](C)c2ccccc2)cc1-c1ccc2nccn2c1 [(1R)-N-((3-imidazo[1,2-a]pyridin-6-yl-4-(methyloxy)phenyl)methyl)-1-phenylethanamine] | ≤ 10
